≈ marks a conversion by molar mass, not a printed value.
Experiment: physchem
Format: physicochemical
Settings: 30 °C, pH 7.5, aqueous buffer
Description: This process can be carried out in reaction mixtures comprised of two phases: an aqueous phase, which initially contains enzyme and dissolved 2-isobutyl-succinonitrile, and an organic phase, which consist mainly of racemic 2-isobutyl-succinonitrile. Two-phase reaction mixtures are prepared by adding 2-isobutyl-succinonitrile to an aqueous solution of enzyme and buffer agents such that the amount of 2-isobutyl-succinonitrile added exceeds it aqueous solubility limit. The aqueous solubility limit of 2-isobutyl-succinonitrile in 50 mM potassium phosphate (30° C., pH 7.5) is approximately 0.06M. Over the course of the reaction, (S)-3-cyano-5-methylhexanoic acid ammonium salt is formed and increases in concentration in the aqueous phase, while the organic phase decreases in volume and becomes enriched in (R)-2-isobutyl-succinonitrile. Alternately, this process can also be carried out in reaction mixtures comprised of three phases: an aqueous phase, which initially contains dissolved 2-isobutyl-succinonitrile, an organic phase, which consists mainly of racemic 2-isobutyl-succinonitrile, and a solid phase, which consists of enzyme immobilized on an insoluble support. Three-phase reaction mixtures are prepared by the procedure described for two-phase reaction mixture except that an enzyme immobilized on an insoluble support is used in place of an un-immobilized enzyme.

## CC(C)CC(C#N)CC#N (racemic) [2-isobutyl-succinonitrile]
  solubility: ~60 mM (≈ 8170 µg/mL)
